Assay results as given in patent US12036225B2, “Use of ibezapolstat to promote microbiome health” (Acurx Pharmaceuticals, Inc., priority 2021, dated 2024).
Blank lines part the entries; values can stand above or below the compound they belong to.

Key:
C. difficile infection [1] = conditions: literature (Gonzales-Luna); cited from earlier work
C. difficile infection [2] = test: Phase 2a open-label trial in CDI patients: clinical cure and sustained clinical cure; assay type: in vivo, human; conditions: 10 CDI patients
Description: Phase 2a of this trial was an open-label cohort of 10 subjects from study centers in the United States. In this cohort, 10 patients with diarrhea caused by mild/moderate C. difficile diagnosed via toxin EIA+ were treated with ibezapolstat 450 mg orally, twice daily for 10 days. All patients were followed for recurrence for 28±2 days. Stool was collected during course of therapy and at follow up. Patient fecal samples were evaluated for C. difficile culture and microbiome changes.
The primary efficacy outcome measure was clinical cure at EOT defined as resolution of diarrhea in the 24-hour period preceding EOT and maintained for at least 48 hours post EOT. SCC was defined as clinical cure with no recurrence of CDI within 28 (±2) days after EOT.
An intent-to-treat analysis of patients receiving at least one dose of ibezapolstat was conducted. Descriptive statistics were calculated for efficacy, safety/tolerability, and PK data generated using SAS version 9.4 software (SAS Institute, Inc Cary, NC, USA). Microbiome summary plots and data visualization was prepared using R software version 4.1.1 (R Core Team 2021, Vienna, Austria). (R Core Team (2013). R: A language and environment for statistical computing. R Foundation for Statistical Computing, Vienna, Austria.) Alpha diversity for each sample was assessed with the VeganR package version 2.4-2 using the Shannon Diversity Index and Inverse Simpson Index. Differences in alpha diversity (Shannon Diversity and Inverse Simpson Indexes) and bile acids at baseline compared to during or after therapy were compared using linear regression models. Proportional changes of bacterial taxa over the 10-day dosing interval were calculated using linear regression models for taxa with at least a one percent proportional change during the study time period. A p value <0.05 was considered significant.

[3] = Phase 2a trial: safety assessments (adverse events); assay type: in vivo, human
Description: Safety evaluations included AE assessment, physical examination, vital signs, clinical laboratory tests (chemistry, hematology, and urinalysis), and electrocardiography. Safety endpoints for all subjects were recorded including nature, frequency, and severity of AEs. AEs were assessed at each visit beginning from the time of enrollment and classified according to the Medical Dictionary for Regulatory Activities (MedDRA version 15.0). AE severity (mild, moderate, or severe) and causality (unrelated, possibly related, or probably related to the study medication) were assessed by the investigator at each site.

[4] = Phase 2a trial: plasma and fecal concentrations (PK); assay type: in vivo, human; conditions: CDI patients
Description: Plasma levels were drawn at 2 and 4 hours after the first daily ibezapolstat administration on days 1, 5, and 10. Fecal samples were collected at baseline and daily during days 1-10 of ibezapolstat receipt. Plasma and fecal concentrations were assayed by AltaSciences (Laval, Quebec, Canada) and PK analyses were performed by Learn and Confirm Inc. (Montreal, Quebec, Canada).

C. difficile = test: Phase 2a trial: stool culture for C. difficile on CCFA; assay type: in vivo, Clostridioides difficile; conditions: CDI patients
Description: Stool samples were cultured for C. difficile growth on a selective cycloserine-cefoxitin fructose agar (CCFA) at 37° C. under anaerobic conditions for 48 hours. (Gonzales-Luna). Isolates were determined to be C. difficile based on growth and morphology and confirmed by PCR for C. difficile toxin and tpi genes. C. difficile was strain typed using a PCR-based ribotyping method as previously described. (Gonzales-Luna A J, Carlson T J, Dotson K M, et al. PCR ribotypes of Clostridioides difficile across Texas from 2011 to 2018 including emergence of ribotype 255. Emerg Microbes Infect 2020; 9(1): 341-7.) Minimum inhibitory concentrations (MICs) were determined for ibezapolstat by broth microdilution in 0.1% sodium taurocholate Brain Heart Infusion (BHI) media. (Begum K, Basseres E, Miranda J, et al. In Vitro Activity of Omadacycline, a New Tetracycline Analog, and Comparators against Clostridioides difficile. Antimicrob Agents Chemother 2020; 64(8).)

[5] = ibezapolstat 450 mg orally twice daily 10 days
[6] = CDI patients receiving ibezapolstat

Structure (SMILES): CN[C@H](CC(C)C)C(=O)N[C@H]1C(=O)N[C@@H](CC(N)=O)C(=O)N[C@H]2C(=O)N[C@H]3C(=O)N[C@H](C(=O)N[C@H](C(=O)O)c4cc(O)cc(O)c4-c4cc3ccc4O)[C@H](O)c3ccc(c(Cl)c3)Oc3cc2cc(c3O[C@@H]2O[C@H](CO)[C@@H](O)[C@H](O)[C@H]2O[C@H]2C[C@](C)(N)[C@H](O)[C@H](C)O2)Oc2ccc(cc2Cl)[C@H]1O [Vancomycin, vancomycin]
patients having a recurring CDI after treatment is discontinued (C. difficile infection [1]): 20-25%

Structure (SMILES): CCc1c(Cl)c(O)c(Cl)c(O)c1C(=O)O[C@H]1[C@H](O)[C@H](OC)[C@H](OC/C2=C\C=C\C[C@H](O)/C(C)=C/[C@H](CC)[C@@H](O[C@@H]3OC(C)(C)[C@@H](OC(=O)C(C)C)[C@H](O)[C@@H]3O)/C(C)=C/C(C)=C/C[C@@H]([C@@H](C)O)OC2=O)O[C@@H]1C [fidaxomicin]
CDI recurrence rates lower than other treatments (C. difficile infection [1]): approximately 50%

stool samples with detectable concentration on day 38 [4]: Three of 4 | plasma concentrations, upper limit ([4]; 450 mg twice daily): ≤ 1 µg/mL | stool concentration, days 8-10 of therapy ([4]; 450 mg twice daily): > 1,000 μg/g stool | concentration at 2 h ([4]; human, plasma, oral, 450 mg twice daily, read-out: plasma levels 2-hour post-dose): 234 to 299 ng/mL | concentration at 4 h ([4]; human, plasma, oral, 450 mg twice daily, read-out: plasma levels 4-hour postdose): 373 to 578 ng/mL | concentration at 2 days after EOT ([4]; human, stool, oral, 450 mg, read-out: stool concentration two days after EOT): 535000 ± 748000 ng/g | concentration at 38 day ([4]; human, stool, oral, 450 mg, samples with detectable concentration): 136000 ± 161000 ng/g | concentration at 3 day of therapy ([4]; human, stool, oral, 450 mg twice daily): 416000 ± 494000 ng/g
Structure (SMILES): O=c1[nH]c(NCc2ccc(Cl)c(Cl)c2)nc2ncn(CCN3CCOCC3)c12 [Ibezapolstat, 2-((3,4-dichlorobenzyl)amino)-7-(2-morpholinoethyl)-1,7-dihydro-6H-purin-6-one]
no recurrences of infection (C. difficile infection [2]; followed 28±2 days): 100% | clinical cure at day 12 (C. difficile infection [2]; [5]): 100% | infection eliminated (C. difficile infection [2]; [5]): 100% | sustained clinical cure at day 38 (C. difficile infection [2]; [5]): 100% | number of AEs reported ([3]; 10 CDI patients): Seven | serious AEs ([3]; 10 CDI patients): None | adverse event profile, in words ([3]; 10 CDI patients, ibezapolstat 450 mg twice daily 10 days): acceptable adverse event profile | Adverse event Headache: Action taken with study medication [3, 6]: No | Adverse event Headache: Frequency [3, 6]: Intermittent | Adverse event Headache: Intensity [3, 6]: Mild | Adverse event Headache: Outcome [3, 6]: Resolved | Adverse event Headache: Relationship to study drug [3, 6]: Unrelated | Adverse event Headache: Serious AE [3, 6]: No | Adverse event Headache: Treatment required [3, 6]: No | Adverse event Intertriginous Candidiasis: Action taken with study medication [3, 6]: No | Adverse event Intertriginous Candidiasis: Frequency [3, 6]: Continuous | Adverse event Intertriginous Candidiasis: Intensity [3, 6]: Moderate | Adverse event Intertriginous Candidiasis: Outcome [3, 6]: Resolved | Adverse event Intertriginous Candidiasis: Relationship to study drug [3, 6]: Unrelated | Adverse event Intertriginous Candidiasis: Serious AE [3, 6]: No | Adverse event Intertriginous Candidiasis: Treatment required [3, 6]: Yes | Adverse event Migraine headache: Action taken with study medication [3, 6]: No | Adverse event Migraine headache: Frequency [3, 6]: Continuous | Adverse event Migraine headache: Intensity [3, 6]: Severe | Adverse event Migraine headache: Outcome [3, 6]: Resolved | Adverse event Migraine headache: Relationship to study drug [3, 6]: Unrelated | Adverse event Migraine headache: Serious AE [3, 6]: No | Adverse event Migraine headache: Treatment required [3, 6]: Yes | Adverse event Nausea: Action taken with study medication [3, 6]: No | Adverse event Nausea: Frequency [3, 6]: Intermittent | Adverse event Nausea: Intensity [3, 6]: Moderate | Adverse event Nausea: Outcome [3, 6]: Resolved | Adverse event Nausea: Relationship to study drug [3, 6]: Probably | Adverse event Nausea: Serious AE [3, 6]: No | Adverse event Nausea: Treatment required [3, 6]: No | Adverse event Vomiting: Action taken with study medication [3, 6]: No | Adverse event Vomiting: Frequency [3, 6]: Once | Adverse event Vomiting: Intensity [3, 6]: Moderate | Adverse event Vomiting: Outcome [3, 6]: Resolved | Adverse event Vomiting: Relationship to study drug [3, 6]: Probably | Adverse event Vomiting: Serious AE [3, 6]: No | Adverse event Vomiting: Treatment required [3, 6]: Yes | patients with AEs ([3]; of the 10 patients): 4 | C. difficile growth from stool samples after baseline (C. difficile; all sampling days other than baseline, 7-9 samples/day): did not grow C. difficile | Eradication of colonic C. difficile (C. difficile; ibezapolstat 450 mg twice daily): complete eradication of colonic C. difficile by day three
